Assay results taken from PubChem BioAssay AID330 (DTP/NCI, 2004).
Several values for one entry are separate records, joined by “and”; a condition that tells them apart may be missing. Equal values may be shown once. Toxic doses and inconclusive results are not listed. How the source made its calls: active means survival T/C of 150% or more; inactive means T/C below 125% in these data. Square brackets hold non-standard residues; d marks the D form. Peptide text beside a SMILES is read from it. ξ: configuration not given here. ξI = CCC(C)C(N)C(=O)O

Test system: P388 leukemia ip, CD2F1 mice, survival T/C
Test: NCI In Vivo Anticancer Drug Screen. Data for tumor model P388 Leukemia (intraperitoneal) in CD2F1 (CDF1) mice
Conditions: endpoint: median survival time, higher = longer survival
How it was run: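 Mice carrying the transplanted tumor received test compound or vehicle. Survival was recorded in each group, and the value is the treated-group measurement divided by that of the vehicle-treated control group.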

[1] = dose: 12.5 mg/kg/injection, schedule: Q01DX009 (ip), vehicle: saline with Tween-80
[2] = dose: 100.0 mg/kg/injection, schedule: Q01DX001 (ip), vehicle: saline with Tween-80
[3] = dose: 200.0 mg/kg/injection, schedule: Q01DX001 (ip), vehicle: saline with Tween-80
[4] = dose: 400.0 mg/kg/injection, schedule: Q01DX001 (ip), vehicle: saline with Tween-80
[5] = dose: 100.0 mg/kg/injection, schedule: Q01DX001 (ip), vehicle: Klucel (hydroxypropylcellulose) (HPC)
[6] = dose: 200.0 mg/kg/injection, schedule: Q01DX001 (ip), vehicle: Klucel (hydroxypropylcellulose) (HPC)
[7] = dose: 400.0 mg/kg/injection, schedule: Q01DX001 (ip), vehicle: Klucel (hydroxypropylcellulose) (HPC)
[8] = dose: 60.0 mg/kg/injection, schedule: Q01DX005 (ip), vehicle: Klucel (hydroxypropylcellulose) (HPC)
[9] = dose: 120.0 mg/kg/injection, schedule: Q01DX005 (ip), vehicle: Klucel (hydroxypropylcellulose) (HPC)
[10] = dose: 240.0 mg/kg/injection, schedule: Q01DX005 (ip), vehicle: Klucel (hydroxypropylcellulose) (HPC)
[11] = dose: 50.0 mg/kg/injection, schedule: Q01DX005 (ip), vehicle: Klucel (hydroxypropylcellulose) (HPC)
[12] = dose: 100.0 mg/kg/injection, schedule: Q01DX005 (ip), vehicle: Klucel (hydroxypropylcellulose) (HPC)
[13] = dose: 200.0 mg/kg/injection, schedule: Q01DX005 (ip), vehicle: Klucel (hydroxypropylcellulose) (HPC)
[14] = dose: 50.0 mg/kg/injection, schedule: Q01DX009 (ip), vehicle: saline with Tween-80
[15] = dose: 100.0 mg/kg/injection, schedule: Q01DX009 (ip), vehicle: saline with Tween-80
[16] = dose: 200.0 mg/kg/injection, schedule: Q01DX009 (ip), vehicle: saline with Tween-80
[17] = dose: 25.0 mg/kg/injection, schedule: Q01DX009 (ip), vehicle: saline with Tween-80
[18] = dose: 60.0 mg/kg/injection, schedule: Q01DX005 (ip), vehicle: saline
[19] = dose: 120.0 mg/kg/injection, schedule: Q01DX005 (ip), vehicle: saline
[20] = dose: 240.0 mg/kg/injection, schedule: Q01DX005 (ip), vehicle: saline

Measured: T/C

CCCCCC(=O)c1c(O)cc2c(c1O)C(=O)c1c(O)cc(OC)cc1C2=O
inactive: dose: 6.25 mg/kg/injection, schedule: Q01DX009 (ip), vehicle: saline with Tween-80 93 % of control | [1] 93 % of control

O=C(/C=C/c1ccccc1)c1c2ccccc2cc2ccccc12
inactive: [2] 107 % of control | [3] 100 % of control | [4] 91 % of control

Cc1ccc(S(=O)(=O)N/N=C2/C=CC3(CC2)CC2C=CC3C2)cc1 (stereo not given)
inactive: dose: 50.0 mg/kg/injection, schedule: Q01DX001 (ip), vehicle: Klucel (hydroxypropylcellulose) (HPC) 91 % of control | [5] 89 % of control | [6] 101 % of control

CC(C)=C(C)OS(=O)(=O)C(F)(F)F
inactive: dose: 50.0 mg/kg/injection, schedule: Q01DX009 (ip), vehicle: olive oil, sesame oil, peanut oil 102 % of control | dose: 100.0 mg/kg/injection, schedule: Q01DX009 (ip), vehicle: olive oil, sesame oil, peanut oil 114 % of control | dose: 200.0 mg/kg/injection, schedule: Q01DX009 (ip), vehicle: olive oil, sesame oil, peanut oil 96 % of control

CC1=C(Cl)C(=O)c2c(O)cccc2C1=O
inactive: dose: 1.0 mg/kg/injection, schedule: Q01DX005 (ip), vehicle: Klucel + Tween-80 91 % of control | dose: 2.0 mg/kg/injection, schedule: Q01DX005 (ip), vehicle: Klucel + Tween-80 94 % of control | dose: 4.0 mg/kg/injection, schedule: Q01DX005 (ip), vehicle: Klucel + Tween-80 97 % of control

COC(=O)C1(OC(=O)CCC(=O)O)C(=O)NC2=C1C(=O)c1ccccc1C2=O (stereo not given)
inactive: dose: 50.0 mg/kg/injection, schedule: Q01DX005 (ip), vehicle: saline with Tween-80 109 % of control and 119 % of control | dose: 200.0 mg/kg/injection, schedule: Q01DX005 (ip), vehicle: saline with Tween-80 111 % of control and 113 % of control

CCN(C)C12CN3CN(CN(C3)C1)C2
inactive: dose: 100.0 mg/kg/injection, schedule: Q01DX001 (ip), vehicle: saline 101 % of control | dose: 200.0 mg/kg/injection, schedule: Q01DX001 (ip), vehicle: saline 110 % of control | dose: 400.0 mg/kg/injection, schedule: Q01DX001 (ip), vehicle: saline 102 % of control

Nc1nccn2cnnc12
inactive: [5] 100 % of control | [6] 104 % of control | [7] 100 % of control

Cc1nc2cncnc2n(CCN2CCOCC2)c1=O
inactive: [8] 98 % of control | [9] 95 % of control | [10] 96 % of control

Cc1ccc(S(=O)(=O)NC(CCCNC(=O)OCc2ccccc2)C(=O)O)cc1 (stereo not given)
inactive: [11] 100 % of control | [12] 99 % of control | [13] 96 % of control

CS(=O)(=O)C(=C1C(=O)NC(=O)NC1=O)S(C)(=O)=O
inactive: dose: 12.5 mg/kg/injection, schedule: Q01DX005 (ip), vehicle: Klucel (hydroxypropylcellulose) (HPC) 98 % of control | dose: 25.0 mg/kg/injection, schedule: Q01DX005 (ip), vehicle: Klucel (hydroxypropylcellulose) (HPC) 100 % of control | [11] 107 % of control and 109 % of control

NC(C(=O)O)C(CC(=O)O)c1ccccc1 (stereo not given)
inactive: [14] 88 % of control | dose: 50.0 mg/kg/injection, schedule: Q01DX009 (ip), vehicle: suspension in saline 96 % of control | [15] 94 % of control | dose: 100.0 mg/kg/injection, schedule: Q01DX009 (ip), vehicle: suspension in saline 89 % of control | dose: 100.0 mg/kg/injection, schedule: Q04DX003 (ip), vehicle: saline with Tween-80 100 % of control | [16] 95 % of control | dose: 200.0 mg/kg/injection, schedule: Q01DX009 (ip), vehicle: suspension in saline 88 % of control | dose: 200.0 mg/kg/injection, schedule: Q04DX003 (ip), vehicle: saline with Tween-80 108 % of control | dose: 400.0 mg/kg/injection, schedule: Q04DX003 (ip), vehicle: saline with Tween-80 97 % of control

O=[N+]([O-])c1ccc(-c2cnc3nc4[nH]c5ccccc5c4nn23)cc1
inactive: [2] 101 % of control | [3] 92 % of control | [4] 87 % of control

O=c1n(CC2CC3(Cl)C(Cl)=C(Cl)C2(Cl)C3(Cl)Cl)c(=O)n(CC2CC3(Cl)C(Cl)=C(Cl)C2(Cl)C3(Cl)Cl)c(=O)n1CC1CC2(Cl)C(Cl)=C(Cl)C1(Cl)C2(Cl)Cl (stereo not given)
inactive: [1] 101 % of control | [17] 95 % of control | [14] 87 % of control and 95 % of control | [16] 97 % of control

CCC(C)C(N)C(=O)NCC(=O)O (stereo not given) (H-[ξI]-Gly-OH)
inactive: [18] 96 % of control | [19] 96 % of control | [20] 96 % of control

OCc1c(-c2ccccc2)nc2n1CCS2
inactive: [5] 102 % of control | [6] 102 % of control | [7] 98 % of control

CC(C)(C)C1CN2CCO[Si](CC[Si](C)(C)C)(OCC2)O1 (stereo not given)
inactive: [11] 98 % of control | [12] 97 % of control | [13] 88 % of control

CCN(CC)CCOC(=O)C(c1ccccc1)C(C)(O)CC (stereo not given)
inactive: dose: 25.0 mg/kg/injection, schedule: Q01DX009 (ip), vehicle: saline 105 % of control | dose: 50.0 mg/kg/injection, schedule: Q01DX009 (ip), vehicle: saline 100 % of control | dose: 100.0 mg/kg/injection, schedule: Q01DX009 (ip), vehicle: saline 115 % of control

CCCCCCCCCCCC(=O)OC1CCC2(C)C(=CCC3C2CCC2(C)C(C(C)CCC(CC)C(C)C)CCC32)C1 (stereo not given)
inactive: [14] 104 % of control | [15] 95 % of control | [16] 90 % of control

C=C1C(=O)OC2/C=C(\C)C(=O)CC3OC(C)(C)OC3(C)CC(OC(=O)/C(C)=C/C)C12 (stereo not given)
inactive: dose: 10.0 mg/kg/injection, schedule: Q01DX009 (ip), vehicle: saline with Tween-80 99 % of control | dose: 20.0 mg/kg/injection, schedule: Q01DX009 (ip), vehicle: saline with Tween-80 105 % of control | dose: 40.0 mg/kg/injection, schedule: Q01DX009 (ip), vehicle: saline with Tween-80 90 % of control

CC1=NN(c2ccccc2)C/C1=N\O
inactive: [11] 103 % of control | [12] 102 % of control

COc1cccc(-c2nc(SC)nc(Cl)c2C#N)c1
inactive: dose: 15.0 mg/kg/injection, schedule: Q01DX005 (ip), vehicle: saline with Tween-80 96 % of control | dose: 30.0 mg/kg/injection, schedule: Q01DX005 (ip), vehicle: saline with Tween-80 86 % of control | dose: 60.0 mg/kg/injection, schedule: Q01DX005 (ip), vehicle: saline with Tween-80 108 % of control and 93 % of control | dose: 120.0 mg/kg/injection, schedule: Q01DX005 (ip), vehicle: saline with Tween-80 113 % of control

CC(C)(C)N=C(CCN1CCCCC1)Nc1ccc(Cl)cc1
inactive: [14] 113 % of control | [15] 112 % of control | [16] 111 % of control

C1CC[N-]CC1.C1CC[N-]CC1.N#C[S-].N#C[S-].[Cu]
inactive: dose: 1.25 mg/kg/injection, schedule: Q04DX003 (ip), vehicle: saline with Tween-80 100 % of control | dose: 2.5 mg/kg/injection, schedule: Q04DX003 (ip), vehicle: saline with Tween-80 100 % of control | dose: 5.0 mg/kg/injection, schedule: Q04DX003 (ip), vehicle: saline with Tween-80 90 % of control | dose: 10.0 mg/kg/injection, schedule: Q04DX003 (ip), vehicle: saline with Tween-80 90 % of control

CCOC(=NC#N)NOC
inactive: [8] 93 % of control | [9] 98 % of control | [10] 102 % of control

CCCCCCCCCCCCCCCC[N+](C)(C)CC[S+](C)C
inactive: dose: 12.5 mg/kg/injection, schedule: Q01DX009 (ip), vehicle: water 96 % of control | dose: 25.0 mg/kg/injection, schedule: Q01DX009 (ip), vehicle: water 99 % of control | dose: 50.0 mg/kg/injection, schedule: Q01DX009 (ip), vehicle: water 100 % of control

NC(CCC(=O)OCCn1c2ccccc2c2ccccc21)C(=O)O (stereo not given)
inactive: [17] 97 % of control | [14] 93 % of control | [15] 97 % of control

CCOP(=O)(CS(=O)(=O)CCC1(C)NC(=O)NC1=O)OCC (stereo not given)
inactive: [18] 101 % of control | [19] 103 % of control | [20] 103 % of control
